In patent US11026427B2, “Microbiocidal oxadiazole derivatives” (SYNGENTA PARTICIPATIONS AG, priority 2016, dated 2021) one finds pest or weed control, melting point and inhibition of growth data, which are given here for 17 compounds.

In data set [1] the test system is Phakopsora pachyrhizi. The data set can be described thus: Phakopsora pachyrhizi / soybean / leaf disc preventative (Asian soybean rust). It is filed as in vivo. Particulars: foliar, 200 ppm in the applied formulation, compared to untreated control, read-out: disease control. Here is the method:
(§1) Leaf disks or leaf segments of various plant species are cut from plants grown in a greenhouse. The cut leaf disks or segments are placed in multiwell plates (24-well format) onto water agar. The leaf disks are sprayed with a test solution before (preventative) or after (curative) inoculation. Compounds to be tested are prepared as DMSO solutions (max. 10 mg/ml) which are diluted to the appropriate concentration with 0.025% Tween20 just before spraying. The inoculated leaf disks or segments are incubated under defined conditions (temperature, relative humidity, light, etc.) according to the respective test system. A single evaluation of disease level is carried out 3 to 14 days after inoculation, depending on the pathosystem. Percent disease control relative to the untreated check leaf disks or segments is then calculated.
Soybean leaf disks are placed on water agar in multiwell plates (24-well format) and sprayed with the formulated test compound diluted in water. One day after application leaf discs are inoculated by spraying a spore suspension on the lower leaf surface. After an incubation period in a climate cabinet of 24-36 hours in darkness at 20° C. and 75% rh leaf disc are kept at 20° C. with 12 h light/day and 75% rh. The activity of a compound is assessed as percent disease control compared to untreated when an appropriate level of disease damage appears in untreated check leaf disks (12 to 14 days after application).
(§2) The following compounds at 200 ppm in the applied formulation give at least 80% disease control in this test when compared to untreated control leaf disks under the same conditions, which show extensive disease development.

Data set [2] concerns Uromyces viciae-fabae. Kind of data set: Uromyces viciae-fabae / field bean / leaf disc preventative (faba-bean rust). The data set is classed as in vivo. The settings on record: foliar, 288 h, 100 ppm in the applied formulation, compared to untreated control, read-out: disease control. Here is the method: as §1
Field bean leaf discs are placed on water agar in multiwell plates (96-well format) and 10 μl of the formulated test compound diluted in acetone and a spreader pipetted onto the leaf disc. Two hours after application leaf discs are inoculated by spraying a spore suspension on the lower leaf surface. The leaf discs are incubated in a climate cabinet at 22° C. with 18 hour day and 70% relative humidity. The activity of a compound is assessed as percent disease control compared to untreated when an appropriate level of disease damage appears in untreated check leaf disks (12 days after application).
The following compounds at 100 ppm in the applied formulation give at least 80% disease control in this test when compared to untreated control leaf discs under the same conditions, which show extensive disease development.

For data set [3], the system named is Puccinia recondita f. Sp. tritici. Kind of data set: Puccinia recondita f. sp. tritici / wheat / leaf disc preventative (brown rust). It is filed as in vivo. Particulars: foliar, 200 ppm in the applied formulation, compared to untreated control, read-out: disease control. Here is the method: as §1, with “calculated. Wheat leaf segments cv. Kanzler were placed on agar in multiwell plates (24-well format) and sprayed with the formulated test compound diluted in water. The leaf disks were inoculated with a spore suspension of the fungus 1 day after application. The inoculated leaf segments were incubated at 19° C. and 75% relative humidity (rh) under a light regime of 12 hours light/12 hours darkness in a climate cabinet and the activity of a compound was assessed as percent disease control compared to untreated when an appropriate level of disease damage appears in untreated check leaf segments (7 to 9 days after application). The following compounds at 200 ppm in the applied formulation give at least 80% disease control in this test when compared to untreated control leaf disks under the same conditions, which show extensive disease development.” for “calculated.”

Data set [4] has as its system Glomerella lacenarium (Colletotrichum lacenarium). The data set can be described thus: Glomerella lacenarium (Colletotrichum lacenarium) liquid culture / cucumber / preventative (anthracnose). It is filed as cell-based. Particulars: 20 ppm in the applied formulation, growth inhibition measured photometrically, compared to untreated control, read-out: disease control. How it is done: Mycelia fragments or conidia suspensions of a fungus prepared either freshly from liquid cultures of the fungus or from cryogenic storage, are directly mixed into nutrient broth. DMSO solutions of the test compound (max. 10 mg/ml) are diluted with 0.025% Tween20 by a factor of 50 and 10 μl of this solution is pipetted into a microtiter plate (96-well format). The nutrient broth containing the fungal spores/mycelia fragments is then added to give an end concentration of the tested compound. The test plates are incubated in the dark at 24° C. and 96% relative humidity. The inhibition of fungal growth is determined photometrically after 2 to 7 days, depending on the pathosystem, and percent antifungal activity relative to the untreated check is calculated.
Conidia of the fungus from cryogenic storage are directly mixed into nutrient broth (PDB—potato dextrose broth). After placing a (DMSO) solution of test compound into a microtiter plate (96-well format), the nutrient broth containing the fungal spores is added. The test plates are incubated at 24° C. and the inhibition of growth is measured photometrically 3 to 4 days after application.
The following compounds at 20 ppm in the applied formulation give at least 80% disease control in this test when compared to untreated control under the same conditions, which show extensive disease development.

In data set [5] the test system is Puccinia recondita f. Sp. tritici. The data set can be described thus: Puccinia recondita f. sp. tritici / wheat / leaf disc curative (brown rust). It is filed as in vivo. The settings on record: foliar, 200 ppm in the applied formulation, compared to untreated control, read-out: disease control. How it is done:
as §1
Wheat leaf segments cv. Kanzler are placed on agar in multiwell plates (24-well format). The leaf segments are then inoculated with a spore suspension of the fungus. Plates were stored in darkness at 19° C. and 75% relative humidity. The formulated test compound diluted in water was applied 1 day after inoculation. The leaf segments were incubated at 19° C. and 75% relative humidity under a light regime of 12 hours light/12 hours darkness in a climate cabinet and the activity of a compound was assessed as percent disease control compared to untreated when an appropriate level of disease damage appears in untreated check leaf segments (6 to 8 days after application).
as §2

One may read the melting point as the temperature of the solid-liquid transition.

Turning to `O=C(c1ccc(F)cc1)c1ccc(-c2noc(C(F)(F)F)n2)cc1` [Compound 1.1, (4-fluorophenyl)-[4-[5-(trifluoromethyl)-1,2,4-oxadiazol-3-yl]phenyl]methanone], the melting point fell in the range of 125 to 135 °C. Besides, the pest or weed control at 200 ppm in data set [1] was no less than 80%. In data set [2], the pest or weed control at 100 ppm is no less than 80%.
In turn, `CC(=O)c1ccc(-c2noc(C(F)(F)F)n2)cc1` [Compound 1.2, 1-[4-[5-(trifluoromethyl)-1,2,4-oxadiazol-3-yl]phenyl]ethanone] registered a melting point of 105 to 115 °C. Also, the pest or weed control at 100 ppm in data set [2] is no less than 80%.
Consider `CC(C)(C)C(=O)c1ccc(-c2noc(C(F)(F)F)n2)cc1` [Compound 1.4, 2,2-dimethyl-1-[4-[5-(trifluoromethyl)-1,2,4-oxadiazol-3-yl]phenyl]propan-1-one], for which, in data set [2], the pest or weed control at 100 ppm was no less than 80%.
The compound `O=C(c1ccc(OC(F)(F)F)cc1)c1ccc(-c2noc(C(F)(F)F)n2)cc1` [Compound 1.6, [4-(trifluoromethoxy)phenyl]-[4-[5-(trifluoromethyl)-1,2,4-oxadiazol-3-yl]phenyl]methanone] displayed a melting point of 104 to 107 °C. Besides, in data set [2], the pest or weed control at 100 ppm is no less than 80%.
`CC#CC(=O)c1ccc(-c2noc(C(F)(F)F)n2)cc1` [Compound 1.7, 1-[4-[5-(trifluoromethyl)-1,2,4-oxadiazol-3-yl]phenyl]but-2-yn-1-one] yielded a melting point of 84 to 87 °C. Moreover, in data set [3], the pest or weed control at 200 ppm is no less than 80%. In addition, in data set [4], the inhibition of growth at 20 ppm was no less than 80%. Further, in data set [2], the pest or weed control at 100 ppm was no less than 80%.
In the case of `C=CCC(=O)c1ccc(-c2noc(C(F)(F)F)n2)cc1` [Compound 1.8, 1-[4-[5-(trifluoromethyl)-1,2,4-oxadiazol-3-yl]phenyl]but-3-en-1-one], the melting point is 65 to 69 °C. In addition, in data set [4], the inhibition of growth at 20 ppm was no less than 80%. Also, the pest or weed control at 100 ppm in data set [2] is no less than 80%.
In turn, `O=C(c1ccc(-c2noc(C(F)(F)F)n2)cc1)C1CC1` [Compound 1.9, cyclopropyl-[4-[5-(trifluoromethyl)-1,2,4-oxadiazol-3-yl]phenyl]methanone] yielded a melting point of 58 to 62 °C. Moreover, the inhibition of growth at 20 ppm in data set [4] is no less than 80%. Moreover, in data set [2], the pest or weed control at 100 ppm was no less than 80%.
Take `CC(C)CC(=O)c1ccc(-c2noc(C(F)(F)F)n2)cc1` [Compound 1.10, 3-methyl-1-[4-[5-(trifluoromethyl)-1,2,4-oxadiazol-3-yl]phenyl]butan-1-one]: in data set [1], the pest or weed control at 200 ppm is no less than 80%. For the same compound, in data set [2], the pest or weed control at 100 ppm was no less than 80%.
The compound `CCn1cc(C(=O)c2ccc(-c3noc(C(F)(F)F)n3)cc2)cn1` [Compound 1.17, (1-ethylpyrazol-4-yl)-[4-[5-(trifluoromethyl)-1,2,4-oxadiazol-3-yl]phenyl]methanone] displayed a melting point of 80 to 86 °C. Further, the pest or weed control at 200 ppm in data set [3] is no less than 80%. In addition, the pest or weed control at 200 ppm in data set [5] was no less than 80%. Besides, the pest or weed control at 200 ppm in data set [1] is no less than 80%. The inhibition of growth at 20 ppm in data set [4] was no less than 80%.
`COc1ccc(C(=O)c2ccc(-c3noc(C(F)(F)F)n3)cc2)nc1` [Compound 1.20, (5-methoxy-2-pyridyl)-[4-[5-(trifluoromethyl)-1,2,4-oxadiazol-3-yl]phenyl]methanone]: the melting point lay within 65 to 73 °C. Further, the pest or weed control at 200 ppm in data set [3] is no less than 80%. In addition, the pest or weed control at 200 ppm in data set [5] was no less than 80%. Also, in data set [1], the pest or weed control at 200 ppm is no less than 80%. Moreover, the inhibition of growth at 20 ppm in data set [4] is no less than 80%.
The compound `O=C(c1ccc(-c2noc(C(F)(F)F)n2)cc1)c1nccs1` [Compound 1.24, thiazol-2-yl-[4-[5-(trifluoromethyl)-1,2,4-oxadiazol-3-yl]phenyl]methanone] yielded a melting point of 84 to 90 °C. Besides, in data set [3], the pest or weed control at 200 ppm was no less than 80%. Moreover, in data set [5], the pest or weed control at 200 ppm is no less than 80%. Moreover, the pest or weed control at 200 ppm in data set [1] was no less than 80%. Also, the inhibition of growth at 20 ppm in data set [4] was no less than 80%.
With `Cc1ccnc(C(=O)c2ccc(-c3noc(C(F)(F)F)n3)cc2)c1` [Compound 1.27, (4-methyl-2-pyridyl)-[4-[5-(trifluoromethyl)-1,2,4-oxadiazol-3-yl]phenyl]methanone], the melting point was in the range of 76 to 81 °C. In addition, the pest or weed control at 200 ppm in data set [3] was no less than 80%. Also, the pest or weed control at 200 ppm in data set [5] was no less than 80%. For the same compound, the pest or weed control at 200 ppm in data set [1] is no less than 80%. In data set [4], the inhibition of growth at 20 ppm is no less than 80%.
For the compound `CCCCC(O)c1ccc(-c2noc(C(F)(F)F)n2)cc1` (stereo not shown) [Compound 2.3, 1-[4-[5-(trifluoromethyl)-1,2,4-oxadiazol-3-yl]phenyl]pentan-1-ol], the pest or weed control at 100 ppm in data set [2] was no less than 80%.
With `OC(c1ccc(OC(F)(F)F)cc1)c1ccc(-c2noc(C(F)(F)F)n2)cc1` (stereo not shown) [Compound 2.5, [4-(trifluoromethoxy)phenyl]-[4-[5-(trifluoromethyl)-1,2,4-oxadiazol-3-yl]phenyl]methanol], the melting point lay within 90 to 93 °C. Moreover, the inhibition of growth at 20 ppm in data set [4] was no less than 80%. In addition, in data set [2], the pest or weed control at 100 ppm was no less than 80%.
On to `OC(c1ccc(-c2noc(C(F)(F)F)n2)cc1)C1CC1` (stereo not shown) [Compound 2.7, cyclopropyl-[4-[5-(trifluoromethyl)-1,2,4-oxadiazol-3-yl]phenyl]methanol], for which the melting point is 69 to 73 °C. Also, the pest or weed control at 200 ppm in data set [3] was no less than 80%. In data set [4], the inhibition of growth at 20 ppm was no less than 80%. Moreover, the pest or weed control at 100 ppm in data set [2] is no less than 80%.
With `C/C=C/CC(O)c1ccc(-c2noc(C(F)(F)F)n2)cc1` (stereo not shown) [Compound 2.9, 1-[4-[5-(trifluoromethyl)-1,2,4-oxadiazol-3-yl]phenyl]pent-3-en-1-ol], the inhibition of growth at 20 ppm in data set [4] was no less than 80%. The pest or weed control at 100 ppm in data set [2] was no less than 80%.
For `Cc1cc(C(O)c2ccc(-c3noc(C(F)(F)F)n3)cc2)on1` (stereo not shown) [Compound 2.14, (3-methylisoxazol-5-yl)-[4-[5-(trifluoromethyl)-1,2,4-oxadiazol-3-yl]phenyl]methanol], the melting point fell in the range of 84 to 90 °C. For the same compound, the pest or weed control at 200 ppm in data set [3] is no less than 80%. Further, the pest or weed control at 200 ppm in data set [5] is no less than 80%. In addition, the pest or weed control at 200 ppm in data set [1] was no less than 80%. The inhibition of growth at 20 ppm in data set [4] was no less than 80%.
